Columns and labels:
Assay type in all cases: in vivo
[1] = test system: Amaranthus retroflexus; test: Pre-emergence herbicidal action against AMARE; conditions: visual score after 3 weeks vs untreated controls
In short: (§1)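 Visual rating at 3 weeks vs untreated pots; 0–100% scale, 100% = plants died. Treatment: aqueous WP/EC spray onto covering soil, 600–800 l/ha, 0.2% wetter, seeds in sandy loam.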

[2] = test system: Setaria viridis; test: Pre-emergence herbicidal action against SETVI; conditions: 80 g/ha
In short: as §1

[3] = test system: Viola tricolor; test: Post-emergence herbicidal action against VIOTR; conditions: 20 g/ha
In short: (§2)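 Weeds in sandy loam soil received a post-emergence spray at the one-leaf stage. Compounds were applied as WP or EC in water, 600 to 800 l/ha, with 0.2% wetting agent. Activity in % was judged visually after roughly 3 weeks against untreated plants.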

[4] = test system: Amaranthus retroflexus; test: Post-emergence herbicidal action against AMARE; conditions: visual assessment about 3 weeks after treatment
In short: as §2

[5] = test system: Veronica persica; test: Post-emergence herbicidal action against VERPE; conditions: 20 g/ha, visual assessment about 3 weeks after treatment
In short: as §2

[6] = test system: Digitaria sanguinalis; test: Post-emergence herbicidal action against DIGSA
In short: as §2

[7] = test system: Matricaria inodora; test: Post-emergence herbicidal action against MATIN; conditions: visual assessment about 3 weeks after treatment
In short: as §2

[8] = test system: Avena fatua; test: Post-emergence herbicidal action against AVEFA; conditions: 20 g/ha, visual assessment about 3 weeks after treatment
In short: as §2

[9] = test system: Echinochloa crus-galli; test: Pre-emergence herbicidal action against ECHCG; conditions: 80 g/ha; visual score after 3 weeks vs untreated controls
In short: as §1

[10] = test system: Viola tricolor; test: Pre-emergence herbicidal action against VIOTR
In short: as §1

[11] = test system: Matricaria inodora; test: Pre-emergence herbicidal action against MATIN; conditions: visual score after 3 weeks vs untreated controls
In short: as §1

[12] = test system: Setaria viridis; test: Post-emergence herbicidal action against SETVI; conditions: visual assessment about 3 weeks after treatment
In short: as §2

[13] = test system: Avena fatua; test: Pre-emergence herbicidal action against AVEFA; conditions: 80 g/ha; visual score after 3 weeks vs untreated controls
In short: as §1

[14] = test system: Alopecurus myosuroides; test: Pre-emergence herbicidal action against ALOMY; conditions: 80 g/ha; visual score after 3 weeks vs untreated controls
In short: as §1

[15] = test system: Digitaria sanguinalis; test: Pre-emergence herbicidal action against DIGSA
In short: as §1

[16] = test system: Alopecurus myosuroides; test: Post-emergence herbicidal action against ALOMY
In short: as §2

[17] = test system: Abutilon theophrasti; test: Pre-emergence herbicidal action against ABUTH; conditions: visual score after 3 weeks vs untreated controls
In short: as §1

[18] = test system: Lolium rigidum; test: Pre-emergence herbicidal action against LOLRI; conditions: 80 g/ha
Excerpt: Seeds of monocotyledonous and dicotyledonous weed plants and crop plants are laid out in sandy loam soil in wood-fiber pots and covered with soil. The compounds of the invention, formulated in the form of wettable powders (WP) or as emulsion concentrates (EC), are then applied to the surface of the covering soil in the form of an aqueous suspension or emulsion at a water application rate equivalent to 600 to 800 l/ha, with addition of 0.2% wetting agent. After the treatment, the pots are placed in a greenhouse and kept under good growth conditions for the trial plants. The damage to the test plants is scored visually after a test period of 3 weeks by comparison with untreated controls (herbicidal activity in percent (%): 100% activity=the plants have died, 0% activity=like control plants). […] The tables below illustrate, in an illustrative manner, the post-emergence herbicidal action of the compounds of the invention, the herbicidal activity being stated in percent.

[19] = test system: Pharbitis purpurea; test: Post-emergence herbicidal action against PHBPU; conditions: visual assessment about 3 weeks after treatment
In short: as §2

[20] = test system: Veronica persica; test: Pre-emergence herbicidal action against VERPE; conditions: 80 g/ha
In short: as §1

[21] = test system: Abutilon theophrasti; test: Post-emergence herbicidal action against ABUTH
In short: as §2

[22] = test system: Echinochloa crus-galli; test: Post-emergence herbicidal action against ECHCG; conditions: 20 g/ha, visual assessment about 3 weeks after treatment
In short: as §2

[23] = test system: Polygonum convolvulus; test: Pre-emergence herbicidal action against POLCO; conditions: 80 g/ha
In short: as §1

Row | SMILES | Pre-emergence action against AMARE ([1]; 20 g/ha) [%] | Pre-emergence action against AMARE ([1]; 80 g/ha) [%] | Pre-emergence action against SETVI [2] [%] | Post-emergence action against VIOTR in % [3] [%] | Post-emergence action against AMARE in % ([4]; 5 g/ha) [%] | Post-emergence action against AMARE in % ([4]; 20 g/ha) [%] | Post-emergence action against DIGSA in % ([6]; 20 g/ha) [%] | Post-emergence action against MATIN in % ([7]; 20 g/ha) [%] | Post-emergence action against AVEFA in % [8] [%] | Pre-emergence action against ECHCG [9] [%] | Pre-emergence action against VIOTR ([10]; 80 g/ha) [%] | Pre-emergence action against MATIN ([11]; 80 g/ha) [%] | Post-emergence action against SETVI in % ([12]; 20 g/ha) [%] | Pre-emergence action against AVEFA [13] [%] | Pre-emergence action against ALOMY [14] [%] | Post-emergence action against ALOMY ([16]; 20 g/ha) [%] | Pre-emergence action against ABUTH ([17]; 20 g/ha) [%] | Pre-emergence action against ABUTH ([17]; 80 g/ha) [%] | Post-emergence action against DIGSA in % ([6]; 5 g/ha) [%] | Pre-emergence action against MATIN ([11]; 20 g/ha) [%] | further results
1 | CN(C(=O)c1c(C(F)(F)F)ccc(C(=O)Nc2nnnn2C)c1Cl)C1CC1 [Example 1-125] | 100 | 100 | 100 | 80 | 80 | 90 | 100 | 80 | 80 | 90 | 100 | 100 | 80 | 80 | 100 | 90 | 100 | 100 | – | – | Post-emergence action against VERPE in % [5]: 90%; Pre-emergence action against VIOTR ([10]; 20 g/ha): 100%; Pre-emergence action against DIGSA ([15]; 20 g/ha): 100%; Pre-emergence action against DIGSA ([15]; 80 g/ha): 100%; Post-emergence action against ALOMY ([16]; 5 g/ha): 80%
2 | CCN(C)C(=O)c1c(C(F)F)ccc(C(=O)Nc2nnnn2C)c1Cl [Example 1-155] | 100 | 100 | 100 | 80 | 100 | 100 | 80 | 90 | 80 | 100 | 100 | 100 | 90 | 90 | 90 | 90 | 100 | 100 | 80 | 90 | Post-emergence action against VERPE in % [5]: 80%; Pre-emergence action against LOLRI [18]: 80%; Post-emergence action against SETVI in % ([12]; 5 g/ha): 80%; Post-emergence action against PHBPU in % ([19]; 5 g/ha): 80%; Post-emergence action against PHBPU in % ([19]; 20 g/ha): 80%; Pre-emergence action against VERPE [20]: 90%; Post-emergence action against ABUTH ([21]; 5 g/ha): 90%; Post-emergence action against ABUTH ([21]; 20 g/ha): 90%; Post-emergence action against ECHCG in % [22]: 90%; Post-emergence action against ALOMY ([16]; 5 g/ha): 80%
3 | CCN(C)C(=O)c1c(C(F)F)ccc(C(=O)Nc2nnnn2CC)c1Cl [Example 2-155] | 100 | 100 | 100 | 80 | 100 | 100 | 80 | 90 | – | 100 | 100 | 100 | 100 | 90 | 90 | 90 | 100 | 100 | 80 | 80 | Post-emergence action against MATIN in % ([7]; 5 g/ha): 80%; Pre-emergence action against LOLRI [18]: 90%; Post-emergence action against SETVI in % ([12]; 5 g/ha): 80%; Post-emergence action against PHBPU in % ([19]; 5 g/ha): 80%; Post-emergence action against PHBPU in % ([19]; 20 g/ha): 80%; Pre-emergence action against VERPE [20]: 90%; Post-emergence action against ABUTH ([21]; 5 g/ha): 80%; Post-emergence action against ABUTH ([21]; 20 g/ha): 90%
4 | CCN(CC)C(=O)c1c(C(F)F)ccc(C(=O)Nc2nnnn2CC)c1Cl [Example 2-166] | 100 | 100 | 100 | 80 | 100 | 100 | 90 | 80 | 80 | 90 | 100 | 100 | 90 | 80 | 90 | 90 | 100 | 100 | 80 | 80 | Pre-emergence action against POLCO [23]: 80%; Post-emergence action against MATIN in % ([7]; 5 g/ha): 80%; Post-emergence action against SETVI in % ([12]; 5 g/ha): 90%; Post-emergence action against PHBPU in % ([19]; 5 g/ha): 80%; Post-emergence action against PHBPU in % ([19]; 20 g/ha): 90%; Pre-emergence action against VERPE [20]: 100%; Post-emergence action against ABUTH ([21]; 5 g/ha): 80%; Post-emergence action against ABUTH ([21]; 20 g/ha): 90%; Post-emergence action against ECHCG in % [22]: 80%

Source: US12599136B2, “Substituted isophthalic acid diamides and their use as herbicides” (Bayer Aktiengesellschaft, priority 2020, dated 2026)
